“Also recorded” adds a separate entry of the source.
How the values were obtained:
[1] = system: LS patient-derived skin fibroblasts; test: Anti-BSO-induced cell death activity assay; settings: Homo sapiens, Skin fibroblast, 48 h, read-out: Anti-BSO-induced cell death effect EC50, co-added with BSO at a concentration giving 10%-20% cell viability; viable cells 48 h after addition
dopamine D2 receptors = biological target: T1, dopamine D2 receptors (Homo sapiens, UniProt P14416); test: Dopamine D2 receptor agonist assay (GeneBLAzer D2-Gqo5-NFAT-bla CHO-K1 reporter); format: cell-based; settings: CHO cells stably expressing dopamine D2 receptors; NA: no activity; read-out: Dopamine D2 receptor agonist (DA) activity EC50
T1 construct: host or cells: CHO-K1 (GeneBLAzer D2-Gqo5-NFAT-bla)
Method: CHO-K1 cells were spread in 384-well plates at 10,000 cells/32 μL/well, taking care not to touch the bottom of the wells. Cell-free-wells were injected with the same volume (32 μL) of assay medium. The plates were then incubated in a CO2 incubator for 16–20 h. […] The diluted solution (8 μL/well) was added to 384-well plates seeded with CHO-K1 cells and incubated in a CO2 incubator for 5 h. […] The addition of the drug induces D2 receptor activation, which activates signaling pathways and transcription factors, resulting in the expression of a reporter gene (β-lactamase) and cleavage of the fluorescence resonance energy transfer (FRET) substrate, causing the fluorescence to change from green to blue.

[2] = system: LS patient-derived skin fibroblasts; test: Anti-RSL3-induced cell death activity assay; format: cell-based; settings: Homo sapiens, Skin fibroblast, read-out: Anti-RSL3-induced cell death effect EC50
Method: RSL3 is a glutathione peroxidase 4 (GPx4) inhibitor that specifically induces ferroptosis. Ferroptosis is an iron-dependent non-apoptotic type of cell death caused by lipid peroxidation.
After 24 h of incubation, the reagents were added to the RSL3 (−) derivative (−) and RSL3 ( +) derivative ( +) groups. […] The final concentration of RSL3 was 50–200 nM that would cause approximately 80–90% cell death after 24 h of incubation. The percentage of viable cells was measured 24 h after addition of each reagent.

[3] = system: LS patient-derived skin fibroblasts; test: Mitochondrial ATP production capacity (extracellular flux analyzer, OCR); format: cell-based, human; settings: 100 nM compound
Description: The extracellular flux analyzer Seahorse XFe96 (Agilent Technologies, Santa Clara, CA, USA) was used to evaluate the mitochondrial function. The extracellular flux analyzer measures the oxygen consumption rate (OCR) in the mitochondria during ATP synthesis and can also evaluate the intracellular mitochondrial function. The endpoints were the basal OCR, ATP-linked OCR, maximal OCR, and spare capacity, which are key indicators of the mitochondrial function in assays using living cells. Each indicator was calculated by continuously adding ATP synthase inhibitors (oligomycin, rotenone and antimycin A) and deconjugating agents (carbonyl cyanide-p-trifluoromethoxyphenylhydrazone [FCCP]) during the measurement (Fig. 6). […] The OCR was measured over time by adding oligomycin (2 μM concentration) 20 min after drug addition, FCCP (2 μM concentration) 50 min later, and rotenone and antimycin A (0.5 μM concentration) 80 min later.

GDF-15 = GDF-15 levels in the cell supernatant (ELISA); format: cell-based, human; settings: 24 h after co-administration with RSL3, compared to RSL3-only
Method: GDF-15 is a biomarker that is elevated in the blood of patients with mitochondrial diseases and is used for the diagnosis of mitochondrial diseases and determination of therapeutic efficacy[26],[36]. […] As previously reported, GDF-15 levels were measured by an enzyme-linked immuno sorbent assay (ELISA) using the Quantikin Human GDF-15 ELISA Kit (R&D Systems, Minneapolis, MN, USA). Samples were obtained from anti-RSL3-induced cell death assays with candidate compounds (D31, D55, and D40), and cell supernatants 24 h after reagent addition were used for the assay. Measured values were calculated with reference to internal standards and compared to GDF-15 values.

T1 sequence (P14416 whole entry): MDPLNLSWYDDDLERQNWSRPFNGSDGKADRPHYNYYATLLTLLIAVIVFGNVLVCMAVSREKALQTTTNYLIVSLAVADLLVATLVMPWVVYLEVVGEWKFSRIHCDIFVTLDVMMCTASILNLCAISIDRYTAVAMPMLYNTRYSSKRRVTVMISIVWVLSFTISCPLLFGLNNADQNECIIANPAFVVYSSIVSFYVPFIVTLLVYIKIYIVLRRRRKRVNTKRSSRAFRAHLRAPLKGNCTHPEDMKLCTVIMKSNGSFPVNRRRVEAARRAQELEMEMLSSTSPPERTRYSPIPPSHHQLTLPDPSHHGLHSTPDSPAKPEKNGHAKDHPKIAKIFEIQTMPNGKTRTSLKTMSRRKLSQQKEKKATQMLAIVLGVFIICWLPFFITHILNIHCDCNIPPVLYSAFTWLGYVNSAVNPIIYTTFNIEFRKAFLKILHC

Structure (SMILES)	EC50 [1] [µM]	further results
CCCN1CCc2cccc3c2[C@H]1Cc1ccc(O)c(O)c1-3 [D3, (9R)-10-propyl-10-azatetracyclo[7.7.1.0²,⁷.0¹³,¹⁷]heptadeca-1(17),2,4,6,13,15-hexaene-3,4-diol]	0.186	
Oc1ccc2c(c1O)-c1cccc3c1[C@@H](C2)NCC3 [D4, (9R)-10-azatetracyclo[7.7.1.0²,⁷.0¹³,¹⁷]heptadeca-1(17),2,4,6,13,15-hexaene-3,4-diol]	1.99	EC50 (dopamine D2 receptors): 0.582 µM
CCCN1CCc2cccc3c2[C@H]1Cc1ccc2c(c1-3)OCO2 [D5, (12R)-13-propyl-4,6-dioxa-13-azapentacyclo[10.7.1.0²,¹⁰.0³,⁷.0¹⁶,²⁰]icosa-1(20),2,7,9,16,18-hexaene]	2.11	
COc1ccc2c(c1OC)C[C@@H]1c3c(cc4c(c3-2)OCO4)CCN1C [D8, (12R)-15,16-dimethoxy-11-methyl-3,5-dioxa-11-azapentacyclo[10.7.1.0²,⁶.0⁸,²⁰.0¹⁴,¹⁹]icosa-1(20),2(6),7,14,16,18-hexaene]	0.18	
COc1cccc2c1C[C@@H]1c3c(cc4c(c3-2)OCO4)CCN1C [D9, (12R)-15-methoxy-11-methyl-3,5-dioxa-11-azapentacyclo[10.7.1.0²,⁶.0⁸,²⁰.0¹⁴,¹⁹]icosa-1(20),2(6),7,14,16,18-hexaene]	0.393	
COc1cc(O)c2c(c1)C[C@@H]1c3c(cc4c(c3-2)OCO4)CCN1C [D10, (12R)-16-methoxy-11-methyl-3,5-dioxa-11-azapentacyclo[10.7.1.0²,⁶.0⁸,²⁰.0¹⁴,¹⁹]icosa-1(20),2(6),7,14,16,18-hexaen-18-ol]	0.75	
COc1cc2c(cc1OC)-c1c(OC)c(OC)cc3c1[C@@H](C2)N(C)CC3 [D11, (9R)-4,5,15,16-tetramethoxy-10-methyl-10-azatetracyclo[7.7.1.0²,⁷.0¹³,¹⁷]heptadeca-1(17),2,4,6,13,15-hexaene]	6.92	
CN1CCc2cccc3c2[C@H]1Cc1ccc(O)c(O)c1-3 [D15, (9R)-10-methyl-10-azatetracyclo[7.7.1.0²,⁷.0¹³,¹⁷]heptadeca-1(17),2,4,6,13,15-hexaene-3,4-diol, reference compound]	0.613	
CN1CCc2cc3c(c4c2[C@@H]1Cc1ccccc1-4)OCO3 [D18, (12S)-11-methyl-3,5-dioxa-11-azapentacyclo[10.7.1.0²,⁶.0⁸,²⁰.0¹⁴,¹⁹]icosa-1(20),2(6),7,14,16,18-hexaene]	0.492	
COc1cc2c(cc1O)C[C@@H]1c3c(cc(O)c(OC)c3-2)CCN1C [D19, (9R)-4,16-dimethoxy-10-methyl-10-azatetracyclo[7.7.1.0²,⁷.0¹³,¹⁷]heptadeca-1(17),2,4,6,13,15-hexaene-5,15-diol]	5.18	
COc1cc2c(cc1OC)-c1c3c(c(OC)c4c1C(C2)N(C)CC4)OCO3 (centres unmarked) [D20, 7,16,17-trimethoxy-11-methyl-3,5-dioxa-11-azapentacyclo[10.7.1.0²,⁶.0⁸,²⁰.0¹⁴,¹⁹]icosa-1(20),2(6),7,14,16,18-hexaene]	0.798	
CN1CCc2cccc3c2[C@@H]1Cc1ccc(O)c(O)c1-3 [D24, (9S)-10-methyl-10-azatetracyclo[7.7.1.0²,⁷.0¹³,¹⁷]heptadeca-1(17),2(7),3,5,13,15-hexaene-3,4-diol]	1.03	
COc1cc2c(cc1O)CC1NCCc3cc(OC)c(OC)c-2c31 (centres unmarked) [D25, 4,15,16-trimethoxy-10-azatetracyclo[7.7.1.0²,⁷.0¹³,¹⁷]heptadeca-1(17),2(7),3,5,13,15-hexaen-5-ol]	2.05	
COc1cc2c3c(c1O)-c1c(ccc(OC)c1OC)C[C@H]3N(C)CC2 [D26, (9R)-3,4,15-trimethoxy-10-methyl-10-azatetracyclo[7.7.1.0²,⁷.0¹³,¹⁷]heptadeca-1(17),2,4,6,13,15-hexaen-16-ol]	0.289	
CN1CCc2cccc3c2[C@H]1Cc1ccc(OCCCN)c(O)c1-3 [D27, (9R)-4-(3-aminopropoxy)-10-methyl-10-azatetracyclo[7.7.1.0²,⁷.0¹³,¹⁷]heptadeca-1(17),2,4,6,13,15-hexaen-3-ol]	0.221	EC50 (dopamine D2 receptors): 0.254 µM
CCCCOc1ccc2c(c1O)-c1cccc3c1[C@@H](C2)N(C)CC3 [D36, (9R)-4-butoxy-10-methyl-10-azatetracyclo[7.7.1.0²,⁷.0¹³,¹⁷]heptadeca-1(17),2,4,6,13,15-hexaen-3-ol]	0.123	
CN1CCc2cccc3c2[C@H]1Cc1ccc(OCCCc2ccccc2)c(O)c1-3 [D37, (9R)-10-methyl-4-(3-phenylpropoxy)-10-azatetracyclo[7.7.1.0²,⁷.0¹³,¹⁷]heptadeca-1(17),2,4,6,13,15-hexaen-3-ol]	0.186	
CN1CCc2cccc3c2[C@H]1Cc1ccc(OCCCO)c(O)c1-3 [D38, (9R)-4-(3-hydroxypropoxy)-10-methyl-10-azatetracyclo[7.7.1.0²,⁷.0¹³,¹⁷]heptadeca-1(17),2,4,6,13,15-hexaen-3-ol]	0.165	EC50 (dopamine D2 receptors): 3.65 µM
CN1CCc2cccc3c2[C@H]1Cc1ccc(OCCCCl)c(O)c1-3 [D39, (9R)-4-(3-chloropropoxy)-10-methyl-10-azatetracyclo[7.7.1.0²,⁷.0¹³,¹⁷]heptadeca-1(17),2,4,6,13,15-hexaen-3-ol]	0.259	
CCCCCCCCCOc1ccc2c(c1O)-c1cccc3c1[C@@H](C2)N(C)CC3 [D41, (9R)-10-methyl-4-(nonyloxy)-10-azatetracyclo[7.7.1.0²,⁷.0¹³,¹⁷]heptadeca-1(17),2,4,6,13,15-hexaen-3-ol]	0.648	
CN1CCc2cccc3c2[C@H]1Cc1ccc(OCCCC(F)(F)F)c(O)c1-3 [D42, (9R)-10-methyl-4-(4,4,4-trifluorobutoxy)-10-azatetracyclo[7.7.1.0²,⁷.0¹³,¹⁷]heptadeca-1(17),2,4,6,13,15-hexaen-3-ol]	0.167	
CN1CCc2cccc3c2[C@H]1Cc1ccc(-c2ccccc2)c(O)c1-3 [D45, (9R)-10-methyl-4-phenyl-10-azatetracyclo[7.7.1.0²,⁷.0¹³,¹⁷]heptadeca-1(17),2,4,6,13,15-hexaen-3-ol]	< 0.1	EC50 ([2]; co-added with RSL3 at a concentration giving 10%-20% cell viability, viable cells 24 h after addition): 0.745 µM; EC50 (dopamine D2 receptors): 2.63 µM
CN1CCc2cccc3c2[C@H]1Cc1ccc(OCc2ccccc2)c(O)c1-3 [D47, (9R)-4-(benzyloxy)-10-methyl-10-azatetracyclo[7.7.1.0²,⁷.0¹³,¹⁷]heptadeca-1(17),2,4,6,13,15-hexaen-3-ol]	0.124	
CN1CCc2cccc3c2[C@H]1Cc1ccc(OCCc2ccccc2)c(O)c1-3 [D48, (9R)-10-methyl-4-(2-phenylethoxy)-10-azatetracyclo[7.7.1.0²,⁷.0¹³,¹⁷]heptadeca-1(17),2,4,6,13,15-hexaen-3-ol]	0.128	
CN1CCc2cccc3c2[C@H]1Cc1ccc(OCCCCc2ccccc2)c(O)c1-3 [D50, (9R)-10-methyl-4-(4-phenylbutoxy)-10-azatetracyclo[7.7.1.0²,⁷.0¹³,¹⁷]heptadeca-1(17),2,4,6,13,15-hexaen-3-ol]	0.207	
CN1CCc2cccc3c2[C@H]1Cc1ccc(OCCC(c2ccccc2)c2ccccc2)c(O)c1-3 [D54, (9R)-4-(3,3-diphenylpropoxy)-10-methyl-10-azatetracyclo[7.7.1.0²,⁷.0¹³,¹⁷]heptadeca-1(17),2,4,6,13,15-hexaen-3-ol]	0.497	
CCOc1ccc2c(c1O)-c1cccc3c1[C@@H](C2)N(C)CC3 [D55, (9R)-4-ethoxy-10-methyl-10-azatetracyclo[7.7.1.0²,⁷.0¹³,¹⁷]heptadeca-1(17),2,4,6,13,15-hexaen-3-ol]		Enhancement of mitochondrial ATP production [3]: showed any ability to enhance mitochondrial ATP production; also recorded: No significant enhancement; EC50 ([2]; 24 h): 0.021 µM; GDF-15 elevation in cell supernatant (GDF-15): suppressed GDF-15 elevation; also recorded: significant decrease
CCOC(=O)c1ccc(NC2CCCCC2)c(N)c1 [ferrostatin-1, reference compound]		GDF-15 elevation in cell supernatant (GDF-15): significant decrease

From article PMC11109252, “Synthetic aporphine alkaloids are potential therapeutics for Leigh syndrome” (Scientific Reports, 2024)
